Test results reported in US8735414B2 (priority 2009, dated 2014).

Tests used:
[1] = test system: bicistronic HCV replicon (replicon RNA, GenBank Accession No. AJ242654); test: HCV Replicon Assay; type: cell-based; settings: Hepatitis C virus, 72 h, read-out: Replicon IC50

Row | Compound | melting point [°C] | IC50 [1] [nM]
1 | C[C@H](NS(=O)(=O)c1ccc(-c2c(C#N)c3ccc(C4CC4)cc3n2-c2ccccn2)nc1)C(F)(F)F [compound 502, 6-[3-cyano-6-cyclopropyl-1-(pyridin-2-yl)-1H-indol-2-yl]-N-[(2S)-1,1,1-trifluoropropan-2-yl]pyridine-3-sulfonamide] | 185 to 189 | < 500
2 | N#Cc1c(-c2ncc(S(=O)(=O)NC(CF)CF)cn2)n(C2CCC2)c2cc(OC(F)F)ccc12 [compound 129, 2-[3-cyano-1-cyclobutyl-6-(difluoromethoxy)-1H-indol-2-yl]-N-(1,3-difluoropropan-2-yl)pyrimidine-5-sulfonamide] | 205 to 207 | < 500
3 | Cc1cc2c(cc1F)c(C#N)c(-c1ccc(S(=O)(=O)N[C@@H](C)C(F)(F)F)cn1)n2C1CCCCC1 [compound 678, 6-(3-cyano-1-cyclohexyl-5-fluoro-6-methyl-1H-indol-2-yl)-N-[(2S)-1,1,1-trifluoropropan-2-yl]pyridine-3-sulfonamide] | 224 to 229 | < 500
4 | CSc1cc2c(cc1F)c(C#N)c(-c1ccc(S(=O)(=O)N[C@@H](C)C(F)(F)F)cn1)n2C1CCC1 [compound 772, 6-[3-cyano-1-cyclobutyl-5-fluoro-6-(methylsulfanyl)-1H-indol-2-yl]-N-[(2S)-1,1,1-trifluoropropan-2-yl]pyridine-3-sulfonamide] | 201 to 203 | < 500
5 | Cc1cc(-c2c(C#N)c3cc(F)c(OC(F)F)cc3n2C2CCC2)ncc1S(=O)(=O)N[C@@H](C)C(F)(F)F [compound 822, 6-[3-cyano-1-cyclobutyl-6-(difluoromethoxy)-5-fluoro-1H-indol-2-yl]-4-methyl-N-[(2S)-1,1,1-trifluoropropan-2-yl]pyridine-3-sulfonamide] | 204 to 210 | < 500
6 | C[C@H](NS(=O)(=O)c1ccc(-c2c(C#N)c3cc(CC(F)F)ccc3n2C2CCC2)nc1)C(F)(F)F [compound 702, 6-[3-cyano-1-cyclobutyl-5-(2,2-difluoroethyl)-1H-indol-2-yl]-N-[(2S)-1,1,1-trifluoropropan-2-yl]pyridine-3-sulfonamide] | 143 to 147 | < 500
7 | Cc1ccc2c(C#N)c(-c3ncc(S(=O)(=O)N[C@@H](C)C(F)(F)F)cn3)n(-c3ccccn3)c2c1 [compound 475, 2-[3-cyano-6-methyl-1-(pyridin-2-yl)-1H-indol-2-yl]-N-[(2S)-1,1,1-trifluoropropan-2-yl]pyrimidine-5-sulfonamide] | 210 to 212 | < 500
8 | CCc1cc2c(cc1F)c(C#N)c(-c1ccc(S(=O)(=O)NC(CF)CF)cn1)n2C1CCCC1 [compound 639, 6-(3-cyano-1-cyclopentyl-6-ethyl-5-fluoro-1H-indol-2-yl)-N-(1,3-difluoropropan-2-yl)pyridine-3-sulfonamide] | 179.5 to 180 | < 500
9 | Cc1ccc2c(c1)c(C#N)c(-c1ncc(S(=O)(=O)NC(CF)CF)cn1)n2CC1CC1 [compound 524, 2-[3-cyano-1-(cyclopropylmethyl)-5-methyl-1H-indol-2-yl]-N-(1,3-difluoropropan-2-yl)pyrimidine-5-sulfonamide] | 151 to 155 | < 500
10 | Cc1ccc2c(C#N)c(-c3ncc(S(=O)(=O)NC(C)C)cn3)n(CC3CC3)c2c1 [compound 168, 2-[3-cyano-1-(cyclopropylmethyl)-6-methyl-1H-indol-2-yl]-N-(propan-2-yl)pyrimidine-5-sulfonamide] | 245 to 247 | < 500
11 | C[C@H](NS(=O)(=O)c1ccc(-c2c(C#N)c3c(F)cc(OC(F)F)cc3n2C2CCC2)nc1)C(F)(F)F [compound 797, 6-[3-cyano-1-cyclobutyl-6-(difluoromethoxy)-4-fluoro-1H-indol-2-yl]-N-[(2S)-1,1,1-trifluoropropan-2-yl]pyridine-3-sulfonamide] | 210 to 212 | < 500
12 | CC(C)(C)NS(=O)(=O)c1ccc(-c2c(C#N)c3ccc(OC(F)(F)F)cc3n2C2CCCC2)nc1 [compound 18, N-tert-butyl-6-[3-cyano-1-cyclopentyl-6-(trifluoromethoxy)-1H-indol-2-yl]pyridine-3-sulfonamide] | 182 to 184 | 500 to 2000
13 | CC(C)n1c(-c2ncc(S(=O)(=O)N[C@@H](C)C3CC3)cn2)c(C#N)c2cc(F)ccc21 [compound 529, 2-[3-cyano-5-fluoro-1-(propan-2-yl)-1H-indol-2-yl]-N-[(1S)-1-cyclopropylethyl]pyrimidine-5-sulfonamide] | 176 to 179 | < 500
14 | C[C@H](C1CC1)n1c(-c2ccc(NS(=O)(=O)C(C)(C)C)nc2)c(C(N)=O)c2cc(F)c(OC(F)F)cc21 [compound 1085, 2-{6-[(tert-butylsulfonyl)amino]pyridin-3-yl}-1-[(1R)-1-cyclopropylethyl]-6-(difluoromethoxy)-5-fluoro-1H-indole-3-carboxamide] | 228 to 230 | < 500
15 | Cc1ccc2c(c1)c(C#N)c(-c1ccc(S(=O)(=O)N[C@@H](C)C(F)(F)F)cn1)n2-c1cnccn1 [compound 845, 6-[3-cyano-5-methyl-1-(pyrazin-2-yl)-1H-indol-2-yl]-N-[(2S)-1,1,1-trifluoropropan-2-yl]pyridine-3-sulfonamide] | 236 to 241 | < 500
16 | Cc1cc2c(cc1F)c(C(=O)N(C)C)c(-c1ccc(S(=O)(=O)N[C@@H](C)C(F)(F)F)cn1)n2C1CCCC1 [compound 783, 1-cyclopentyl-5-fluoro-N,N,6-trimethyl-2-(5-{[(2S)-1,1,1-trifluoropropan-2-yl]sulfamoyl}pyridin-2-yl)-1H-indole-3-carboxamide] | 278 to 280 | 2000 to 5000
17 | Cc1cc2c(cc1F)c(C#N)c(-c1ccc(S(=O)(=O)NC(C)(C)C)cn1)n2C1CCCCC1 [compound 710, N-tert-butyl-6-(3-cyano-1-cyclohexyl-5-fluoro-6-methyl-1H-indol-2-yl)pyridine-3-sulfonamide] | 244 to 245 | < 500
18 | Cc1ccc2c(C#N)c(-c3ncc(S(=O)(=O)NC(CF)CF)cn3)n(C3CCC3)c2c1F [compound 557, 2-(3-cyano-1-cyclobutyl-7-fluoro-6-methyl-1H-indol-2-yl)-N-(1,3-difluoropropan-2-yl)pyrimidine-5-sulfonamide] | 191 to 198 | < 500
19 | N#Cc1c(-c2ncc(S(=O)(=O)NC(CF)CF)cn2)n(C2CCC2)c2cc(OC(F)(F)F)ccc12 [compound 177, 2-[3-cyano-1-cyclobutyl-6-(trifluoromethoxy)-1H-indol-2-yl]-N-(1,3-difluoropropan-2-yl)pyrimidine-5-sulfonamide] | 202 to 204 | < 500
20 | C[C@H](NS(=O)(=O)c1ccc(-c2c(C#N)c3ccc(CC(F)F)cc3n2C2CCCC2)nc1)C(F)(F)F [compound 595, 6-[3-cyano-1-cyclopentyl-6-(2,2-difluoroethyl)-1H-indol-2-yl]-N-[(2S)-1,1,1-trifluoropropan-2-yl]pyridine-3-sulfonamide] | 181 to 189 | < 500
21 | Cc1cc2cc(-c3ccc(S(=O)(=O)N[C@@H](C)C(F)(F)F)cn3)n(C3CCC3)c2cc1OC(F)F [compound 646, 6-[1-cyclobutyl-6-(difluoromethoxy)-5-methyl-1H-indol-2-yl]-N-[(2S)-1,1,1-trifluoropropan-2-yl]pyridine-3-sulfonamide] | 151 to 153 | 2000 to 5000
22 | Cc1cc(F)c2c(C#N)c(-c3ccc(S(=O)(=O)N[C@@H](C)C(F)(F)F)cn3)n(C3CCCC3)c2c1 [compound 625, 6-(3-cyano-1-cyclopentyl-4-fluoro-6-methyl-1H-indol-2-yl)-N-[(2S)-1,1,1-trifluoropropan-2-yl]pyridine-3-sulfonamide] | 207 to 211 | < 500
23 | C[C@H](NS(=O)(=O)c1ccc(-c2c(C#N)c3cc(F)ccc3n2-c2ccccn2)nc1)C(F)(F)F [compound 386, 6-[3-cyano-5-fluoro-1-(pyridin-2-yl)-1H-indol-2-yl]-N-[(2S)-1,1,1-trifluoropropan-2-yl]pyridine-3-sulfonamide] | 210 to 212 | < 500
24 | Cc1cc2c(cc1F)c(C#N)c(-c1ccc(S(=O)(=O)NC(CF)CF)cn1)n2C1CCC1 [compound 108, 6-(3-cyano-1-cyclobutyl-5-fluoro-6-methyl-1H-indol-2-yl)-N-(1,3-difluoropropan-2-yl)pyridine-3-sulfonamide] | 186 to 188 | < 500
25 | N#Cc1c(-c2ccc(S(=O)(=O)NC3(C(F)(F)F)CC3)cn2)n(-c2ncccn2)c2cc(OC(F)F)ccc12 [compound 690, 6-[3-cyano-6-(difluoromethoxy)-1-(pyrimidin-2-yl)-1H-indol-2-yl]-N-[1-(trifluoromethyl)cyclopropyl]pyridine-3-sulfonamide] | 170 to 174 | 500 to 2000
26 | CC(C)n1c(-c2ccc(S(=O)(=O)NC(CF)CF)cn2)c(C#N)c2ccc(Cl)cc21 [compound 63, 6-[6-chloro-3-cyano-1-(propan-2-yl)-1H-indol-2-yl]-N-(1,3-difluoropropan-2-yl)pyridine-3-sulfonamide] | 200 to 202 | < 500
27 | Cc1ccc2c(C#N)c(-c3ccc(S(=O)(=O)NC(CF)CF)cn3)n(C3CCCC3)c2c1 [compound 44, 6-(3-cyano-1-cyclopentyl-6-methyl-1H-indol-2-yl)-N-(1,3-difluoropropan-2-yl)pyridine-3-sulfonamide] | 144 to 145 | < 500
28 | C[C@H](NS(=O)(=O)c1cnc(-c2c(C#N)c3cc(Cl)ccc3n2C2CCCC2)nc1)C(F)(F)F [compound 419, 2-(5-chloro-3-cyano-1-cyclopentyl-1H-indol-2-yl)-N-[(2S)-1,1,1-trifluoropropan-2-yl]pyrimidine-5-sulfonamide] | 243 to 249 | 500 to 2000
